Results published in the kinase profiling compilation of Christmann-Franck et al. (2016).

Assays:
Assay in all cases: radiometric filter-binding kinase assay, Kinase HotSpot
Details in all cases: compound 0.5 µM; ATP 10 µM
[1] = target: PRKCZ (human) (UniProt Q05513)
[2] = target: PKN1 (human) (UniProt Q16512)
[3] = target: AURKB (human) (UniProt Q96GD4)
[4] = target: MYLK2 (human) (UniProt Q9H1R3)
[5] = target: PAK6 (human) (UniProt Q9NQU5)
[6] = target: CLK4 (human) (UniProt Q9HAZ1)
[7] = target: RPS6KA5 KD2 (human) (UniProt O75582)
[8] = target: EPHB1 (human) (UniProt P54762)
[9] = target: IRAK1 (human) (UniProt P51617)
[10] = target: PRKCB1 (human) (UniProt P05771)
Sequence of PRKCB1 (human) (P05771 whole entry, looked up): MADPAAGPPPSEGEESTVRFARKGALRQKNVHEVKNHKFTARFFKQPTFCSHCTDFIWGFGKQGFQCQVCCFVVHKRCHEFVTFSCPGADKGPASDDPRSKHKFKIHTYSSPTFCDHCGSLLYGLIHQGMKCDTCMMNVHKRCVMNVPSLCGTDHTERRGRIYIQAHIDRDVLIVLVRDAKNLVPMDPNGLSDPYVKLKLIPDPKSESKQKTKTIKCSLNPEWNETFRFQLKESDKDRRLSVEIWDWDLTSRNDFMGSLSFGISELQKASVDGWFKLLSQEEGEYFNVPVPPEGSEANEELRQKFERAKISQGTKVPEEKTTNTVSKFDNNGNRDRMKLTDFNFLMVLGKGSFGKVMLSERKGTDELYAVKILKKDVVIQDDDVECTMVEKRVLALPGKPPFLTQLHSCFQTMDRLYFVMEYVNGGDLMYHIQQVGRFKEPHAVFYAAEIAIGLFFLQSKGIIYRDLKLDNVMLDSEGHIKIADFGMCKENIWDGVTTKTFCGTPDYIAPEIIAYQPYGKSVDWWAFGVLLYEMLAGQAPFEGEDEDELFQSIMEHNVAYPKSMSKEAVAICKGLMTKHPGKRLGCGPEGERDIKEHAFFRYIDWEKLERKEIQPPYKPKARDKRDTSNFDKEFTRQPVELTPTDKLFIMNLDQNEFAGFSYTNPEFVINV

[11] = target: MAPK3 (human) (UniProt P27361)
[12] = target: CAMK2G (human) (UniProt Q13555)
Sequence of CAMK2G (human) (Q13555 whole entry, looked up): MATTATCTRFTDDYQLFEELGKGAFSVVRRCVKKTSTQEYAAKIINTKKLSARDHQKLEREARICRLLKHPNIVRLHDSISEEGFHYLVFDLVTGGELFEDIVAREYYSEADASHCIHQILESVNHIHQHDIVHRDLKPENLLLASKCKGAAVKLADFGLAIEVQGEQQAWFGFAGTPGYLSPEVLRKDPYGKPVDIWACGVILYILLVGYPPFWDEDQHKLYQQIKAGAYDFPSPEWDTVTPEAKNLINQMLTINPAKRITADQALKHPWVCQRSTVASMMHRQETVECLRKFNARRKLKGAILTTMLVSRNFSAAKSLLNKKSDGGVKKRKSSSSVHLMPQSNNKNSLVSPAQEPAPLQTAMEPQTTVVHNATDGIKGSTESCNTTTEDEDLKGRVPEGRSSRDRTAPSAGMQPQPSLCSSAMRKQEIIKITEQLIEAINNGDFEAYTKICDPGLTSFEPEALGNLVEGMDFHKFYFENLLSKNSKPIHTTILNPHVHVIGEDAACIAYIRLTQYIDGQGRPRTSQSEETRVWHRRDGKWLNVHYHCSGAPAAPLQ

[13] = target: WNK3 (human) (UniProt Q9BYP7)
[14] = target: MARK1 (human) (UniProt Q9P0L2)
Sequence of MARK1 (human) (Q9P0L2 whole entry, looked up): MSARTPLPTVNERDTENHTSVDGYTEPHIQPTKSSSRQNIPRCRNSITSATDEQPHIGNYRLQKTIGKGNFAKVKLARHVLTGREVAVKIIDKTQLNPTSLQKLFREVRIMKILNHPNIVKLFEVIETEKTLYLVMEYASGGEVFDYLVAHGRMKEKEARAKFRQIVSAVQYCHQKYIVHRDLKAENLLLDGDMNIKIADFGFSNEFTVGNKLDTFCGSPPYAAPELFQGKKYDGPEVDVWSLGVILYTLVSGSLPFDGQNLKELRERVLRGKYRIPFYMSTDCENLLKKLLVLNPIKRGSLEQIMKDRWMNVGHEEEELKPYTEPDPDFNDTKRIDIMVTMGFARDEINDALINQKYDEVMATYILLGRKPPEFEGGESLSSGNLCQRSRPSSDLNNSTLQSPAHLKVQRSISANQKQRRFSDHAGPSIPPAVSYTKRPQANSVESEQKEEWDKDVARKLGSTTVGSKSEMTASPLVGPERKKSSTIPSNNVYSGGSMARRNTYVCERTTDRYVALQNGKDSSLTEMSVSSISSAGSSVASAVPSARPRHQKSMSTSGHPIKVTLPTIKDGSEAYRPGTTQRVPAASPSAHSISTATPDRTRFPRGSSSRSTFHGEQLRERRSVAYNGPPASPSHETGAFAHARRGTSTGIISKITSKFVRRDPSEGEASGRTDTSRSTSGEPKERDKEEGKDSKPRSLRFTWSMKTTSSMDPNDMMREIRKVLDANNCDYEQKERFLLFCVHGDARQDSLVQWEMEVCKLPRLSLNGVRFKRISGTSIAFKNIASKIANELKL

[15] = target: JAK3 JH1 JH2 (human) (UniProt P52333)
Sequence of JAK3 JH1 JH2 (human) (P52333 whole entry, looked up): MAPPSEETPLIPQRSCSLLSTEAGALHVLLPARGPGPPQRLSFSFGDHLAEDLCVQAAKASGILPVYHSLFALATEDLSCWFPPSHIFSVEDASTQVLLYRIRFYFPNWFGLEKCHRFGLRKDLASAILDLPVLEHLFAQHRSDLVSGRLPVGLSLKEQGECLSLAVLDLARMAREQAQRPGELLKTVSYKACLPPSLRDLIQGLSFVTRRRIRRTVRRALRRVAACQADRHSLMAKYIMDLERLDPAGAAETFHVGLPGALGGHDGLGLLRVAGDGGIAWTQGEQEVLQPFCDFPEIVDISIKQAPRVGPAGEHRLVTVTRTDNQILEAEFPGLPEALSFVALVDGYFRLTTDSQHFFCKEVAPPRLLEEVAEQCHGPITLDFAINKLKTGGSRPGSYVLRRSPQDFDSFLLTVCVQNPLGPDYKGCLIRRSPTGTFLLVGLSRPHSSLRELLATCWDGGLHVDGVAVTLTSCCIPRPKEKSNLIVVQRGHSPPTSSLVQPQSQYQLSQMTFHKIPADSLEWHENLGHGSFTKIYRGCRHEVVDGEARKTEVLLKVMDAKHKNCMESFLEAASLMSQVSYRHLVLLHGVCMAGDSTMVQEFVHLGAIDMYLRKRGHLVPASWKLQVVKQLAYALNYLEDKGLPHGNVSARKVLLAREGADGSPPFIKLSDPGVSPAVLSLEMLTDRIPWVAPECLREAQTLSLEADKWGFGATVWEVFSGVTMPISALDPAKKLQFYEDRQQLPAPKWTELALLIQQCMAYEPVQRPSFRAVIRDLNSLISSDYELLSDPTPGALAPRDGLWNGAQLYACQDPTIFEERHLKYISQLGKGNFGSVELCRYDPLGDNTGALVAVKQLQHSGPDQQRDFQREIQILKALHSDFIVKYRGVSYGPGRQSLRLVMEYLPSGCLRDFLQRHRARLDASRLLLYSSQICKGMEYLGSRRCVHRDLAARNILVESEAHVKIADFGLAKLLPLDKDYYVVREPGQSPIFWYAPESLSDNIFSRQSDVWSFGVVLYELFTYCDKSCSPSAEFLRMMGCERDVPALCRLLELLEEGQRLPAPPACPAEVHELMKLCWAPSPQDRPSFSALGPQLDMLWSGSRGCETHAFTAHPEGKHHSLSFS

[16] = target: MARK3 (human) (UniProt P27448)
[17] = target: ERBB4 (human) (UniProt Q15303)
[18] = target: PHKG2 (human) (UniProt P15735)
[19] = target: MAP3K9 (human) (UniProt P80192)
[20] = target: MAPK13 (human) (UniProt O15264)
[21] = target: PNCK (human) (UniProt Q6P2M8)
Sequence of PNCK (human) (Q6P2M8 whole entry, looked up): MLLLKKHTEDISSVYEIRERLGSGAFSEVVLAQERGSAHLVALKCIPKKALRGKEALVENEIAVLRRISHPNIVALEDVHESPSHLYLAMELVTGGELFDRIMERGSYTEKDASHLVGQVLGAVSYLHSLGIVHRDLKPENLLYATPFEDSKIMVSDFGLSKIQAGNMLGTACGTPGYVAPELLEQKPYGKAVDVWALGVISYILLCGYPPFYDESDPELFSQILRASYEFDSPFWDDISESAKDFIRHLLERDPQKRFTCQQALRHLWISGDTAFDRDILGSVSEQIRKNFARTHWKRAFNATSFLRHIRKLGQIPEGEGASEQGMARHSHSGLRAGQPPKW

[22] = target: FRK (human) (UniProt P42685)
[23] = target: PRKCG (human) (UniProt P05129)
[24] = target: PIM2 (human) (UniProt Q9P1W9)
Sequence of PIM2 (human) (Q9P1W9 whole entry, looked up): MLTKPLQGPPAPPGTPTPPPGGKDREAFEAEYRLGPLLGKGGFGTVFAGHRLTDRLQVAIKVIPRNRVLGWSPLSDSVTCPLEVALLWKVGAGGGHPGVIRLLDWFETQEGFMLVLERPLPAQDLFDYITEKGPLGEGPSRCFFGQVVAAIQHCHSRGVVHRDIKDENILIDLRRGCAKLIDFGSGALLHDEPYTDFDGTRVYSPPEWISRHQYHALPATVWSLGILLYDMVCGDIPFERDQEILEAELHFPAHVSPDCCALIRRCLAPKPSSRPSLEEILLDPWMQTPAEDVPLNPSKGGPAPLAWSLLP

[25] = target: PLK3 (human) (UniProt Q9H4B4)
Sequence of PLK3 (human) (Q9H4B4 whole entry, looked up): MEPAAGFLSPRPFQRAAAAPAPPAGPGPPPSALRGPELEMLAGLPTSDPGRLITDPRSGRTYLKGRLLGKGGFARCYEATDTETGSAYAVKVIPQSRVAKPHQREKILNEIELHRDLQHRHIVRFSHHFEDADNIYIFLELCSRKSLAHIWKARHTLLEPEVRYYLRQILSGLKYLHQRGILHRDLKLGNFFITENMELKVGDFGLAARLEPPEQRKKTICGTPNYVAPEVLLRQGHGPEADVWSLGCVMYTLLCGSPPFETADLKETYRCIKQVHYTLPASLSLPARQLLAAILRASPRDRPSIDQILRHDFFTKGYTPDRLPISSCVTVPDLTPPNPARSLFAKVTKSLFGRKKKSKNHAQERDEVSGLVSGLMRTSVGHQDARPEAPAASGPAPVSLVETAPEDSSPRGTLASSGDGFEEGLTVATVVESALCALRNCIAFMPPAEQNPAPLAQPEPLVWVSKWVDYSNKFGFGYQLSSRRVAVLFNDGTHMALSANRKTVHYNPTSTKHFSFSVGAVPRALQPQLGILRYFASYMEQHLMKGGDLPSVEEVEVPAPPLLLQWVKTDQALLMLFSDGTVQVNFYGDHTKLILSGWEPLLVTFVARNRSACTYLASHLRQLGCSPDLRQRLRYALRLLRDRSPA

[26] = target: WEE1 (human) (UniProt P30291)
[27] = target: PTK2 (human) (UniProt Q05397)
[28] = target: MARK2 (human) (UniProt Q7KZI7)
[29] = target: DAPK3 (human) (UniProt O43293)
[30] = target: FGFR3 (human) (UniProt P22607)
[31] = target: ULK1 (human) (UniProt O75385)
[32] = target: GSK3B (human) (UniProt P49841)
[33] = target: FLT3 (human) (UniProt P36888)
[34] = target: FGFR2 (human) (UniProt P21802)
[35] = target: MAPK10 (human) (UniProt P53779)
[36] = target: SIK2 (human) (UniProt Q9H0K1)
[37] = target: AURKA (human) (UniProt O14965)
[38] = target: GRK7 (human) (UniProt Q8WTQ7)
Sequence of GRK7 (human) (Q8WTQ7 whole entry, looked up): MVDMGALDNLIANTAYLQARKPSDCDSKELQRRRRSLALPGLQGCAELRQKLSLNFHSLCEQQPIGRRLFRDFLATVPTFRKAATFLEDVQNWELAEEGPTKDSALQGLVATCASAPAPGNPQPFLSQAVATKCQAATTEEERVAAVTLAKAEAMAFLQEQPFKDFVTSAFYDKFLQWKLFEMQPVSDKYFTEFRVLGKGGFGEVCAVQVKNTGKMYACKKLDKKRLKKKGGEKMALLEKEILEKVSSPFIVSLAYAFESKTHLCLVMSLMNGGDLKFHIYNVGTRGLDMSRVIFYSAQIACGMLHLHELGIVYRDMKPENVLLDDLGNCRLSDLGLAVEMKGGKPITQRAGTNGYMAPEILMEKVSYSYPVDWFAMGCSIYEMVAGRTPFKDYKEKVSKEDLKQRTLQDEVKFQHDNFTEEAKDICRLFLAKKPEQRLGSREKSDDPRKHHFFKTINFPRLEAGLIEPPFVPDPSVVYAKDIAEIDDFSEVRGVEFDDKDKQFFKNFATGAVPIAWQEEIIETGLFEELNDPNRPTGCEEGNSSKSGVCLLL

[39] = target: MAPK14 (human) (UniProt Q16539)
[40] = target: PHKG1 (human) (UniProt Q16816)
[41] = target: INSRR (human) (UniProt P14616)
[42] = target: GRK4 (human) (UniProt P32298)

## O=C1NC(=O)C(c2c[nH]c3ccccc23)=C1c1c[nH]c2ccccc12
[1]
  residual activity: 96.2%
[2]
  residual activity: 84.6%
[3]
  residual activity: 89.3%
[4]
  residual activity: 91.9%
[5]
  residual activity: 92.4%
[6]
  residual activity: 76.1%
[7]
  residual activity: 62%
[8]
  residual activity: 83.1%
[9]
  residual activity: 89.6%
[10]
  residual activity: 26.1%
[11]
  residual activity: 105%
[12]
  residual activity: 104%
[13]
  residual activity: 98.3%
[14]
  residual activity: 90.6%
[15]
  residual activity: 63%
[16]
  residual activity: 98.5%
[17]
  residual activity: 110%
[18]
  residual activity: 107%
[19]
  residual activity: 55.4%
[20]
  residual activity: 104%
[21]
  residual activity: 93.3%
[22]
  residual activity: 88.2%
[23]
  residual activity: 91.4%
[24]
  residual activity: 105%
[25]
  residual activity: 99.9%
[26]
  residual activity: 98.1%
[27]
  residual activity: 101%
[28]
  residual activity: 88.9%
[29]
  residual activity: 104%
[30]
  residual activity: 70.7%
[31]
  residual activity: 105%
[32]
  residual activity: 28.4%
[33]
  residual activity: 16.1%
[34]
  residual activity: 89.4%
[35]
  residual activity: 110%
[36]
  residual activity: 102%
[37]
  residual activity: 108%
[38]
  residual activity: 91.8%
[39]
  residual activity: 109%
[40]
  residual activity: 74.9%
[41]
  residual activity: 90.1%
[42]
  residual activity: 97.1%

## Cn1cnc2cc3c(Nc4cccc(Br)c4)ncnc3cc21
[1]
  residual activity: 102%
[2]
  residual activity: 89.1%
[3]
  residual activity: 78.2%
[4]
  residual activity: 87.6%
[5]
  residual activity: 95%
[6]
  residual activity: 88.5%
[7]
  residual activity: 93.5%
[8]
  residual activity: 72.2%
[9]
  residual activity: 80.5%
[10]
  residual activity: 100%
[11]
  residual activity: 109%
[12]
  residual activity: 104%
[13]
  residual activity: 95.8%
[14]
  residual activity: 94.3%
[15]
  residual activity: 106%
[16]
  residual activity: 104%
[17]
  residual activity: 75.5%
[18]
  residual activity: 103%
[19]
  residual activity: 79.8%
[20]
  residual activity: 101%
[21]
  residual activity: 101%
[22]
  residual activity: 93.6%
[23]
  residual activity: 93.9%
[24]
  residual activity: 113%
[25]
  residual activity: 99.8%
[26]
  residual activity: 106%
[27]
  residual activity: 108%
[28]
  residual activity: 96.6%
[29]
  residual activity: 93.7%
[30]
  residual activity: 98.6%
[31]
  residual activity: 113%
[32]
  residual activity: 101%
[33]
  residual activity: 33.4%
[34]
  residual activity: 98%
[35]
  residual activity: 104%
[36]
  residual activity: 101%
[37]
  residual activity: 87.8%
[38]
  residual activity: 106%
[39]
  residual activity: 93.6%
[40]
  residual activity: 85%
[41]
  residual activity: 92.1%
[42]
  residual activity: 99.5%
